# Assays:
# [1] = test system: Staphylococcus aureus (Isolate ID ATCC 29213); test: Antibacterial activity, MIC, S. aureus; format: cell-based; conditions: broth microdilution or agar dilution; for MIC: Staphylococcus aureus, ATCC29213, Gram positive strain
# Outline: (§1)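 Readout is the MIC, established according to CLSI standard M7-A7 using either agar dilution or broth microdilution.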
# physchem = conditions: for solubility at 24 h: pH 7.4, aqueous buffer, kinetic from dmso stock
# Outline: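 DMSO doubling dilutions were diluted twenty-fold into 100 mM citrate (pH 4), PBS (pH 7.4) or carbonate-bicarbonate (pH 9). After 24 h equilibration at room temperature, absorbance was read at 620 nm. The reported value is the highest concentration without measurable precipitate.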
# [2] = test system: Enterococcus faecalis (Isolate ID ATCC 29212); test: Antibacterial activity, MIC, E. faecalis; format: cell-based; conditions: Gram positive strain, broth microdilution or agar dilution; for MIC: Enterococcus faecalis, ATCC29212
# Outline: as §1
# [3] = test system: Streptococcus pyogenes (Isolate ID ATCC 51339); test: Antibacterial activity, MIC, S. pyogenes; format: cell-based; conditions: broth microdilution or agar dilution; for MIC: Streptococcus pyogenes, ATCC51339, Gram positive strain
# Outline: as §1
# [4] = test system: Haemophilus influenzae (Isolate ID ATCC 49247); test: Antibacterial activity, MIC, H. influenzae; format: cell-based; conditions: Gram negative strain, broth microdilution or agar dilution; for MIC: Haemophilus influenzae, ATCC49247
# Outline: as §1
# [5] = Pharmacokinetic assay, IV and oral PK profile, rat; format: in vivo
# Procedure: Pharmacokinetic Assays: Determination of PK Profile
# The pharmacokinetic profiles of compounds were determined by measuring the compound concentration in plasma by LC/MS/MS following a single intravenous or peroral administration of the compounds at a dose of 3 mg/kg. The concentrations described are the mean plasma concentrations at each time point from three animals. Intravenous dose formulation was administered as a single bolus dose through the tail vein. Oral dose formulation was administered to animals by an oral gavage needle. In both cases the dose volume was 5.0 mL/kg. Blood was collected from rats using a jugular vein catheter and from anesthetized mice through a capillary guided into the retro-orbital plexus. The collected blood was centrifuged to obtain plasma and the compounds extracted into methanol prior to determining the compound concentration by LC/MS/MS. The results for selected compounds of the invention are shown in FIGS. 2 to 8 where the X axis denotes time (hours) and the Y axis denotes plasma concentration (ng/mL). The Cmaxoral (μg/mL), AUCiv (μg·hr/mL), AUCoral (μg.hr/mL) and F(%) values are provided in the following table where Cmaxoral is the maximum oral concentration, AUC is area under the curve for intraveneous (IV) and oral and F (%) represents compound bioavailability as calculated by [AUCoral/AUCiv]×100%.
# [6] = Solubility Range (maximum solubility)
SMILES,MIC [1],solubility at 24 h (physchem; Max Solubility),solubility at 24 h (physchem; Solubility (pH 7.4)),solubility at 24 h (physchem; Solubility Range),solubility at 24 h (physchem; [6]),MIC [2],MIC [3],MIC [4],"F (%) bioavailability ([5]; [AUCoral/AUCiv]×100%, 3 mg/kg)","AUC ([5]; po, single peroral dose 3 mg/kg, plasma, read-out: AUCoral)","AUCiv ([5]; single intravenous dose 3 mg/kg, plasma)","Cmaxoral ([5]; single peroral dose 3 mg/kg, plasma)",Antibacterial Activity (MIC) S. aureus (ATCC 29213) ([1]; Gram positive strain),Max Solubility (physchem; pH 4),Solubility (pH 7.4) (physchem; pH 7.4),Antibacterial Activity (MIC) E. faecalis (ATCC 29212) [2],Antibacterial Activity (MIC) S. pyogenes (ATCC 51339) ([3]; Gram positive strain),Antibacterial Activity (MIC) H. influenzae (ATCC 49247) [4]
"CCNC(=O)Nc1nc2cc(-c3cnc(N4CCC(C)(C(=O)O)CC4)nc3)cc(-c3ccccn3)c2s1 [Compound 1, 1-[5-[2-(ethylcarbamoylamino)-7-(2-pyridyl)-1,3-benzothiazol-5-yl]pyrimidin-2-yl]-4-methyl-piperidine-4-carboxylic acid]",≤ 0.25 µg/mL,≥ 800 µg/mL,≥ 800 µg/mL,> 800 µg/mL,> 800 µg/mL,≤ 0.25 µg/mL,≤ 0.25 µg/mL,1 to 16 µg/mL,48%,8300 ng·h/mL,17400 ng·h/mL,1800 ng/mL,,,,,,
CCNC(=O)Nc1nc2cc(-c3cnc(N4CCC(C(=O)O)(C(F)(F)F)C4)nc3)cc(-c3ccccn3)c2s1 (centres unmarked) [Compound 164],1 to 16 µg/mL,,≥ 800 µg/mL,> 800 µg/mL,,1 to 16 µg/mL,0.25 to 1 µg/mL,> 16 µg/mL,,,,,,,,,,
CCNC(=O)Nc1nc2cc(-c3cnc(N4CC5CCCC5(C(=O)O)C4)nc3)cc(-c3ccccn3)c2s1 (centres unmarked) [Compound 165],≤ 0.25 µg/mL,,≥ 800 µg/mL,> 800 µg/mL,,≤ 0.25 µg/mL,≤ 0.25 µg/mL,1 to 16 µg/mL,,,,,,,,,,
CCNC(=O)Nc1nc2cc(-c3cnc(N4CCC(NC(=O)OC(C)(C)C)(C(=O)OC)CC4)nc3)cc(-c3ccccn3)c2s1 [Compound 167],1 to 16 µg/mL,,12.5 µg/mL,12.5 to 400 µg/mL,,≤ 0.25 µg/mL,≤ 0.25 µg/mL,> 16 µg/mL,,,,,,,,,,
CCNC(=O)Nc1nc2cc(-c3cnc(N4CCC(N)(C(=O)OC)CC4)nc3)cc(-c3ccccn3)c2s1 [Compound 168],0.25 to 1 µg/mL,,25 µg/mL,12.5 to 400 µg/mL,,≤ 0.25 µg/mL,1 to 16 µg/mL,> 16 µg/mL,,,,,,,,,,
CCNC(=O)Nc1nc2cc(-c3cnc(N4CCC(C)(C(=O)OC)CC4)nc3)cc(-c3ccccn3)c2s1 [Compound 169],1 to 16 µg/mL,,6.25 µg/mL,< 12.5 µg/mL,,0.25 to 1 µg/mL,≤ 0.25 µg/mL,1 to 16 µg/mL,,,,,,,,,,
CCNC(=O)Nc1nc2cc(-c3cnc(N4CCC(=O)C(C)(C(=O)OC)C4)nc3)cc(-c3ccccn3)c2s1 (centres unmarked) [Compound 170],0.25 to 1 µg/mL,,6.25 µg/mL,< 12.5 µg/mL,,≤ 0.25 µg/mL,0.25 to 1 µg/mL,> 16 µg/mL,,,,,,,,,,
CCNC(=O)Nc1nc2cc(-c3cnc(N4CCC(C)(C(=O)OCC)CC4)nc3)cc(-c3ccccn3)c2s1 [Compound 171],> 16 µg/mL,,3.12 µg/mL,< 12.5 µg/mL,,0.25 to 1 µg/mL,≤ 0.25 µg/mL,1 to 16 µg/mL,,,,,,,,,,
CCNC(=O)Nc1nc2cc(-c3cnc(N4CCC(O)C(C)(C(=O)OC)C4)nc3)cc(-c3ccccn3)c2s1 (centres unmarked) [Compound 172],1 to 16 µg/mL,,12.5 µg/mL,12.5 to 400 µg/mL,,≤ 0.25 µg/mL,≤ 0.25 µg/mL,1 to 16 µg/mL,,,,,,,,,,
CCNC(=O)Nc1nc2cc(-c3cnc(N4CCC(O)(C(=O)OC)CC4)nc3)cc(-c3ccccn3)c2s1 [Compound 173],0.25 to 1 µg/mL,,50 µg/mL,12.5 to 400 µg/mL,,≤ 0.25 µg/mL,≤ 0.25 µg/mL,1 to 16 µg/mL,,,,,,,,,,
CCNC(=O)Nc1nc2cc(-c3cnc(N4CCC(C#N)(C(=O)OCC)CC4)nc3)cc(-c3ccccn3)c2s1 [Compound 174],> 16 µg/mL,,3.12 µg/mL,< 12.5 µg/mL,,0.25 to 1 µg/mL,0.25 to 1 µg/mL,> 16 µg/mL,,,,,,,,,,
CCNC(=O)Nc1nc2cc(-c3cnc(N4CCC(OC)(C(=O)OC)CC4)nc3)cc(-c3ccccn3)c2s1 [Compound 175],0.25 to 1 µg/mL,,25 µg/mL,12.5 to 400 µg/mL,,≤ 0.25 µg/mL,≤ 0.25 µg/mL,1 to 16 µg/mL,,,,,,,,,,
CCNC(=O)Nc1nc2cc(-c3cnc(N4CCC(C(=O)OCC)(S(C)(=O)=O)CC4)nc3)cc(-c3ccccn3)c2s1 [Compound 176],> 16 µg/mL,,100 µg/mL,12.5 to 400 µg/mL,,> 16 µg/mL,0.25 to 1 µg/mL,> 16 µg/mL,,,,,,,,,,
CCNC(=O)Nc1nc2cc(-c3cnc(N4CCC(Cc5ccccc5)(C(=O)OCC)CC4)nc3)cc(-c3ccccn3)c2s1 [Compound 177],> 16 µg/mL,,12.5 µg/mL,12.5 to 400 µg/mL,,> 16 µg/mL,> 16 µg/mL,> 16 µg/mL,,,,,,,,,,
CCNC(=O)Nc1nc2cc(-c3cnc(N4CCC(C)(C(=O)OCC)CC4)nc3)cc(C3CCN(C(C)=O)CC3)c2s1 [Compound 178],,,,,,,,,,,,,D (“D” activity >16 μg/mL),6.25 µg/mL,3.125 μg/mL,D (“D” activity >16 μg/mL),C (“C” activity >1.0 μg/mL-16 μg/mL),D (“D” activity >16 μg/mL)
CCNC(=O)Nc1nc2cc(-c3cnc(N4CCC(C(=O)OC)(C(F)(F)F)C4)nc3)cc(-c3ccccn3)c2s1 (centres unmarked) [Compound 180],1 to 16 µg/mL,,6.25 µg/mL,< 12.5 µg/mL,,0.25 to 1 µg/mL,0.25 to 1 µg/mL,> 16 µg/mL,,,,,,,,,,
CCNC(=O)Nc1nc2cc(-c3cncc(N4CCC(C)(C(=O)O)CC4)c3)cc(-c3ccccn3)c2s1 [Compound 181],0.25 to 1 µg/mL,≥ 800 µg/mL,≥ 800 µg/mL,> 800 µg/mL,> 800 µg/mL,≤ 0.25 µg/mL,≤ 0.25 µg/mL,1 to 16 µg/mL,,,,,,,,,,
CCNC(=O)Nc1nc2cc(-c3ccc(C4=NOC(C)(C(=O)O)C4)nc3)cc(-c3ccccn3)c2s1 (centres unmarked) [Compound 183],1 to 16 µg/mL,,100 µg/mL,12.5 to 400 µg/mL,,0.25 to 1 µg/mL,≤ 0.25 µg/mL,1 to 16 µg/mL,,,,,,,,,,
CCNC(=O)Nc1nc2cc(-c3ccc(C4=NOC(C)(C(=O)OCC)C4)nc3)cc(-c3ccccn3)c2s1 (centres unmarked) [Compound 184],≤ 0.25 µg/mL,,6.25 µg/mL,< 12.5 µg/mL,,≤ 0.25 µg/mL,≤ 0.25 µg/mL,1 to 16 µg/mL,,,,,,,,,,
CCNC(=O)Nc1nc2cc(-c3cnc(N4CCC(C(N)=O)(c5ccccc5)CC4)nc3)cc(-c3ccccn3)c2s1 [Compound 185],0.25 to 1 µg/mL,,6.25 µg/mL,< 12.5 µg/mL,,≤ 0.25 µg/mL,1 to 16 µg/mL,> 16 µg/mL,,,,,,,,,,

# Source: patent US9181234B2, “Antibacterial compounds” (priority 2010, dated 2015)
